Experimental data taken from patent US20240327393A1 (SIRONAX LTD., priority 2021, published 2024).

System: HT-1080 (ATCC, CCL-121) cells
Experiment: HT-1080 cell viability assay with ferroptosis inducer RSL3 (Cell Titer-Glo)
Type: cell-based
Details: Homo sapiens; HT-1080 cells treated with RSL3; 3-fold, 10-point dilution, 1.1 μM highest concentration; Table 2; read-out: EC50 (nM), ferroptosis inhibitory activity
Method in brief: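 HT-1080 cells (6000 per well) were cultured overnight at 37 °C, then co-treated with RSL3 and compound in a 3-fold, 10-point series topping at 1.1 μM. Viability was read by CellTiter-Glo luminescence and normalized to untreated controls. EC50 came from a sigmoidal non-linear regression fit.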

EC50 [nM]	SMILES
0.1 to 100	CN1Cc2cc(Nc3ccc(N4CCC(F)(F)CC4)cc3)ccc2C1=O [Compound 172, 5-((4-(4,4-difluoropiperidin-1-yl)phenyl)amino)-2-methylisoindolin-1-one]
0.1 to 100	CN1Cc2cc(Nc3ccc(N4CCC(C(F)(F)F)CC4)cc3)ccc2C1=O [Compound 173, 2-methyl-5-((4-(4-(trifluoromethyl)piperidin-1-yl)phenyl)amino) isoindolin-1-one]
0.1 to 100	CC1CCN(c2ccc(Nc3ccc4c(c3)CN(C)C4=O)cc2)CC1 [Compound 174, 2-methyl-5-((4-(4-methylpiperidin-1-yl)phenyl)amino)isoindolin-1-one]
0.1 to 100	CCN1Cc2ccc(Nc3ccc(N4CCC(C(F)(F)F)CC4)cc3)cc2C1 [Compound 175, 2-ethyl-N-(4-(4-(trifluoromethyl)piperidin-1-yl)phenyl)isoindolin-5-amine]
0.1 to 100	CCN1Cc2ccc(Nc3ccc(N4CCC(C)CC4)cc3)cc2C1 [Compound 176, 2-ethyl-N-(4-(4-methylpiperidin-1-yl)phenyl)isoindolin-5-amine]
0.1 to 100	CCN1Cc2ccc(Nc3ccc(N4CCCCC4)c(C(F)(F)F)c3)cc2C1 [Compound 177, 2-ethyl-N-(4-(piperidin-1-yl)-3-(trifluoromethyl)phenyl)isoindolin-5-amine]
0.1 to 100	CN1Cc2cc(Nc3ccc(N4CCCCC4)c(C(F)(F)F)c3)ccc2C1=O [Compound 178, 2-methyl-5-((4-(piperidin-1-yl)-3-(trifluoromethyl)phenyl)amino) isoindolin-1-one]
0.1 to 100	O=C1c2ccc(Nc3ccc(N4CCC(C(F)(F)F)CC4)cc3)cc2CN1CC1CC1 [Compound 179, 2-(cyclopropylmethyl)-5-((4-(4-(trifluoromethyl)piperidin-1-yl)phenyl)amino)isoindolin-1-one]
0.1 to 100	CCN1Cc2cc(Nc3ccc(N4CCC(C(F)(F)F)CC4)cc3)ccc2C1=O [Compound 180, 2-ethyl-5-((4-(4-(trifluoromethyl)piperidin-1-yl)phenyl)amino) isoindolin-1-one]
0.1 to 100	CC(C)(C)C(=O)N1Cc2ccc(Nc3ccc(N4CCC(C(F)(F)F)CC4)cc3)cc2C1 [Compound 181, 2,2-dimethyl-1-(5-((4-(4-(trifluoromethyl)piperidin-1-yl)phenyl)amino)isoindolin-2-yl)propan-1-one]
0.1 to 100	O=C1NCc2cc(Nc3ccc(N4CCC(C(F)(F)F)CC4)cc3)ccc21 [Compound 182, 5-((4-(4-(trifluoromethyl)piperidin-1-yl)phenyl)amino)isoindolin-1-one]
0.1 to 100	CN1Cc2cc(Nc3cnc(N4CCCCC4)c(F)c3)ccc2C1=O [Compound 183, 5-((5-fluoro-6-(piperidin-1-yl)pyridin-3-yl)amino)-2-methylisoindolin-1-one]
0.1 to 100	CC1CCN(c2ccc(Nc3ccc4c(c3)CN(CC3CC3)C4=O)cc2)CC1 [Compound 184, 2-(cyclopropylmethyl)-5-((4-(4-methylpiperidin-1-yl)phenyl)amino) isoindolin-1-one]
0.1 to 100	O=C1c2ccc(Nc3ccc(N4CCCCC4)cc3)cc2CN1CC1CC1 [Compound 185, 2-(cyclopropylmethyl)-5-((4-(piperidin-1-yl)phenyl)amino)isoindolin-1-one]
0.1 to 100	CC(=O)N1Cc2ccc(Nc3ccc(N4CCC(C(F)(F)F)CC4)cc3)cc2C1 [Compound 186, 1-(5-((4-(4-(trifluoromethyl)piperidin-1-yl)phenyl)amino)isoindolin-2-yl) ethan-1-one]
0.1 to 100	Cn1oc2cc(Nc3ccc(N4CCC(C(F)(F)F)CC4)cc3)ccc2c1=O [Compound 187, 2-methyl-6-((4-(4-(trifluoromethyl)piperidin-1-yl)phenyl)amino)benzo[d]isoxazol-3(2H)-one]
100 to 1000	Cn1c(=O)c2ccc(Nc3ccc(N4CCC(C(F)(F)F)CC4)cc3)cc2n1C(=O)OC(C)(C)C [Compound 188, tert-butyl 2-methyl-3-oxo-6-((4-(4-(trifluoromethyl)piperidin-1-yl)phenyl)amino)-2,3-dihydro-1H-indazole-1-carboxylate]
0.1 to 100	CC1(C)c2ccc(Nc3ccc(N4CCC(C(F)(F)F)CC4)cc3)cc2CN1C(=O)C1CC1 [Compound 189, cyclopropyl(1,1-dimethyl-5-((4-(4-(trifluoromethyl)piperidin-1-yl)phenyl)amino)isoindolin-2-yl)methanone]
0.1 to 100	O=C(C1CC1)N1Cc2ccc(Nc3ccc(N4CCC(C(F)(F)F)CC4)cc3)cc2C1 [Compound 190, cyclopropyl(5-((4-(4-(trifluoromethyl)piperidin-1-yl)phenyl)amino)isoindolin-2-yl)methanone]
0.1 to 100	Cn1[nH]c2cc(Nc3ccc(N4CCC(C(F)(F)F)CC4)cc3)ccc2c1=O [Compound 191, 2-methyl-6-((4-(4-(trifluoromethyl)piperidin-1-yl)phenyl)amino)-1,2-dihydro-3H-indazol-3-one]

EC50 [nM]	SMILES
0.1 to 100	CC1CCN(c2c(F)cc(Nc3ccc4c(c3)CN(C)C4=O)cc2F)CC1 [Compound 192, 5-((3,5-difluoro-4-(4-methylpiperidin-1-yl)phenyl)amino)-2-methylisoindolin-1-one]
0.1 to 100	CCN1Cc2cc(Nc3cc(F)c(N4CCC(C)CC4)c(F)c3)ccc2C1=O [Compound 193, 5-((3,5-difluoro-4-(4-methylpiperidin-1-yl)phenyl)amino)-2-ethylisoindolin-1-one]
0.1 to 100	CN1Cc2cc(Nc3ccc(N4CCC(C(F)(F)F)CC4)cc3)cnc2C1=O [Compound 194, 6-methyl-3-((4-(4-(trifluoromethyl)piperidin-1-yl)phenyl)amino)-5,6-dihydro-7H-pyrrolo[3,4-b]pyridin-7-one]
0.1 to 100	CCN1Cc2ccc(Nc3cnc(N4CCCCC4)c(F)c3)cc2C1 [Compound 195, 2-ethyl-N-(5-fluoro-6-(piperidin-1-yl)pyridin-3-yl)isoindolin-5-amine]
0.1 to 100	Fc1cc(Nc2ccc3c(c2)CN(CC2CC2)C3)cnc1N1CCCCC1 [Compound 196, 2-(cyclopropylmethyl)-N-(5-fluoro-6-(piperidin-1-yl)pyridin-3-yl) isoindolin-5-amine]
0.1 to 100	CC(C)(C)N1Cc2cc(Nc3ccc(N4CCC(C(F)(F)F)CC4)cc3)ccc2C1=O [Compound 197, 2-(tert-butyl)-5-((4-(4-(trifluoromethyl)piperidin-1-yl)phenyl)amino) isoindolin-1-one]
0.1 to 100	COCCOCCN1Cc2cc(Nc3ccc(N4CCC(C(F)(F)F)CC4)cc3)ccc2C1=O [Compound 198, 2-(2-(2-methoxyethoxy)ethyl)-5-((4-(4-(trifluoromethyl)piperidin-1-yl)phenyl)amino)isoindolin-1-one]
0.1 to 100	O=C1c2ccc(Nc3ccc(N4CCC(C(F)(F)F)CC4)cc3)cc2CN1Cc1ccccc1 [Compound 199, 2-benzyl-5-((4-(4-(trifluoromethyl)piperidin-1-yl)phenyl)amino) isoindolin-1-one]
0.1 to 100	CN(C)CCCN1Cc2cc(Nc3ccc(N4CCC(C(F)(F)F)CC4)cc3)ccc2C1=O [Compound 200, 2-(3-(dimethylamino)propyl)-5-((4-(4-(trifluoromethyl)piperidin-1-yl)phenyl)amino)isoindolin-1-one]
0.1 to 100	CN1C(=O)c2ccc(Nc3ccc(N4CCC(C(F)(F)F)CC4)cc3)cc2C1=O [Compound 201, 2-methyl-5-((4-(4-(trifluoromethyl)piperidin-1-yl)phenyl)amino) isoindoline-1,3-dione]
0.1 to 100	CN1Cc2cc(Nc3ccc(N4CCC(C(F)(F)F)CC4)cc3)cc(F)c2C1=O [Compound 202, 7-fluoro-2-methyl-5-((4-(4-(trifluoromethyl)piperidin-1-yl)phenyl)amino) isoindolin-1-one]
0.1 to 100	CN1Cc2cc(Nc3ccc(N4CCC(C(F)(F)F)CC4)cc3)cc(Cl)c2C1=O [Compound 203, 7-chloro-2-methyl-5-((4-(4-(trifluoromethyl)piperidin-1-yl)phenyl)amino) isoindolin-1-one]
0.1 to 100	CN1Cc2cc(Nc3ccc(N4CCC(C(F)(F)F)CC4)c(F)c3)ccc2C1=O [Compound 204, 5-((3-fluoro-4-(4-(trifluoromethyl)piperidin-1-yl)phenyl)amino)-2-methylisoindolin-1-one]
0.1 to 100	CC(C)(C)NC(=O)N1Cc2ccc(Nc3ccc(N4CCC(C(F)(F)F)CC4)cc3)cc2C1 [Compound 205, N-(tert-butyl)-5-((4-(4-(trifluoromethyl)piperidin-1-yl)phenyl)amino) isoindoline-2-carboxamide]
0.1 to 100	Cn1cnc(N2Cc3cc(Nc4ccc(N5CCC(C(F)(F)F)CC5)cc4)ccc3C2=O)c1 [Compound 206, 2-(1-methyl-1H-imidazol-4-yl)-5-((4-(4-(trifluoromethyl)piperidin-1-yl)phenyl)amino)isoindolin-1-one]
0.1 to 100	CC1CN(c2ccc(Nc3ccc4c(c3)nnn4C)cc2)CC(C)O1 (stereo not drawn) [Compound 207, N-(4-(2,6-dimethylmorpholino)phenyl)-1-methyl-1H-benzo[d][1,2,3]triazol-5-amine]
0.1 to 100	CN1CCC(N2Cc3cc(Nc4ccc(N5CCC(C(F)(F)F)CC5)cc4)ccc3C2=O)CC1 [Compound 208, 2-(1-methylpiperidin-4-yl)-5-((4-(4-(trifluoromethyl)piperidin-1-yl)phenyl)amino)isoindolin-1-one]
0.1 to 100	O=C1c2ccc(Nc3ccc(N4CCC(C(F)(F)F)CC4)cc3)cc2CN1C1CC1 [Compound 209, 2-cyclopropyl-5-((4-(4-(trifluoromethyl)piperidin-1-yl)phenyl)amino) isoindolin-1-one]
0.1 to 100	CC(C)N1Cc2cc(Nc3ccc(N4CCC(C(F)(F)F)CC4)cc3)ccc2C1=O [Compound 210, 2-isopropyl-5-((4-(4-(trifluoromethyl)piperidin-1-yl)phenyl)amino) isoindolin-1-one]
